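Values below derive from 48-hour exposures of cells grown in 96-well plates, with endpoints linearly interpolated between the two concentrations bracketing the appropriate inhibition level. At the GI50, growth is halved.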 Active and inactive are the calls of the source. Rule as the data show it: active = GI50 up to about 1.1 µM and inactive = higher.
Key:
Experiment in all cases: inhibition of tumour cell growth, NCI panel, 48 h
SN12C = tested on: SN12C
OVCAR-3 = tested on: OVCAR-3
BT-549 = tested on: BT-549
MOLT-4 = tested on: MOLT-4
CCRF-CEM = tested on: CCRF-CEM
COLO 205 = tested on: COLO 205
TK-10 = tested on: TK-10
T47D = tested on: T47D
MCF7 = tested on: MCF7
RXF 393 = tested on: RXF 393
SNB-19 = tested on: SNB-19
NCI-H23 = tested on: NCI-H23
HL-60 = tested on: HL-60
NCI-H522 = tested on: NCI-H522
HCT-116 = tested on: HCT-116
OVCAR-8 = tested on: OVCAR-8
HOP-92 = tested on: HOP-92
SR = tested on: SR
SNB-75 = tested on: SNB-75

SMILES	GI50 (SN12C)	GI50 (OVCAR-3)	GI50 (BT-549)	GI50 (MOLT-4)	GI50 (CCRF-CEM)	GI50 (COLO 205)	GI50 (TK-10)	GI50 (T47D)	GI50 (MCF7)	GI50 (RXF 393)	GI50 (SNB-19)	GI50 (NCI-H23)	GI50 (HL-60)	GI50 (NCI-H522)	GI50 (HCT-116)	GI50 (OVCAR-8)	GI50 (HOP-92)	GI50 (SR)	GI50 (SNB-75)
Cc1ccc2c(=O)c(-c3n[nH]c(=S)s3)c[nH]c2n1	> 100 µM (inactive)	> 100 µM (inactive)	> 100 µM (inactive)	> 100 µM (inactive)	> 100 µM (inactive)	> 100 µM (inactive)	> 100 µM (inactive)	> 100 µM (inactive)	> 100 µM (inactive)	> 100 µM (inactive)	> 100 µM (inactive)	> 100 µM (inactive)	> 100 µM (inactive)	82.8 µM (inactive)	> 100 µM (inactive)	> 100 µM (inactive)	–	–	–
COc1ccc(N(C(=O)Nc2ccc(Cl)c(Cl)c2)C2c3cccn3C(=O)N2c2ccc(Cl)c(Cl)c2)cc1 (stereo unspecified)	> 100 µM (inactive)	–	> 100 µM (inactive)	1.54 µM (inactive)	36 µM (inactive)	> 100 µM (inactive)	> 100 µM (inactive)	–	43.3 µM (inactive)	> 100 µM (inactive)	> 100 µM (inactive)	92 µM (inactive)	25.1 µM (inactive)	–	17.3 µM (inactive)	> 100 µM (inactive)	51.3 µM (inactive)	12.4 µM (inactive)	–
O=C(O)c1ccccc1CC1Cc2cc3c(cc2C1)CCC3	> 100 µM (inactive)	> 100 µM (inactive)	> 100 µM (inactive)	> 100 µM (inactive)	> 100 µM (inactive)	> 100 µM (inactive)	> 100 µM (inactive)	33 µM (inactive)	> 100 µM (inactive)	89.1 µM (inactive)	> 100 µM (inactive)	49.5 µM (inactive)	> 100 µM (inactive)	> 100 µM (inactive)	> 100 µM (inactive)	> 100 µM (inactive)	–	> 100 µM (inactive)	> 100 µM (inactive)
Cc1ccc(I)cc1N=C=S	20.7 µM (inactive)	31 µM (inactive)	13.3 µM (inactive)	20.2 µM (inactive)	21.8 µM (inactive)	18.2 µM (inactive)	36 µM (inactive)	16.1 µM (inactive)	21.2 µM (inactive)	20.2 µM (inactive)	23.5 µM (inactive)	19.9 µM (inactive)	21.6 µM (inactive)	17.2 µM (inactive)	29.8 µM (inactive)	38.4 µM (inactive)	43.4 µM (inactive)	–	21.2 µM (inactive)
COc1ccc(SC(C)(SC)c2ccccn2)c(OC)n1 (stereo unspecified)	> 100 µM (inactive)	52.8 µM (inactive)	64.9 µM (inactive)	3.22 µM (inactive)	–	31.6 µM (inactive)	> 100 µM (inactive)	–	60.1 µM (inactive)	> 100 µM (inactive)	> 100 µM (inactive)	35.4 µM (inactive)	3.24 µM (inactive)	36.3 µM (inactive)	48.3 µM (inactive)	75.7 µM (inactive)	70 µM (inactive)	47.2 µM (inactive)	–
CC(=O)C1=C(N=[N+]=[N-])c2cccc3cccc(c23)C1=O	16.1 µM (inactive)	12.2 µM (inactive)	20.8 µM (inactive)	7.19 µM (inactive)	5.73 µM (inactive)	15.7 µM (inactive)	15.3 µM (inactive)	15.8 µM (inactive)	10.6 µM (inactive)	11.4 µM (inactive)	30.1 µM (inactive)	20 µM (inactive)	–	14.2 µM (inactive)	16 µM (inactive)	23.6 µM (inactive)	21.7 µM (inactive)	–	21.8 µM (inactive)
NC(=O)NC(CC(=O)O)C(=O)O (stereo unspecified)	> 100 µM (inactive)	> 100 µM (inactive)	> 100 µM (inactive)	> 100 µM (inactive)	> 100 µM (inactive)	–	> 100 µM (inactive)	> 100 µM (inactive)	–	> 100 µM (inactive)	> 100 µM (inactive)	> 100 µM (inactive)	–	> 100 µM (inactive)	> 100 µM (inactive)	> 100 µM (inactive)	> 100 µM (inactive)	> 100 µM (inactive)	> 100 µM (inactive)
COC(c1ccsc1)C(C#N)(C#N)/N=C/c1ccsc1 (stereo unspecified)	16.7 µM (inactive)	12.6 µM (inactive)	17 µM (inactive)	13.9 µM (inactive)	5.96 µM (inactive)	16.5 µM (inactive)	17.7 µM (inactive)	13.9 µM (inactive)	2.18 µM (inactive)	12.7 µM (inactive)	23 µM (inactive)	13.1 µM (inactive)	3.18 µM (inactive)	6.73 µM (inactive)	12.8 µM (inactive)	18.1 µM (inactive)	12 µM (inactive)	–	15.1 µM (inactive)
COc1cc(NC(C)CCCN)c2nccc(C)c2c1 (stereo unspecified)	31.4 µM (inactive)	23.1 µM (inactive)	15.8 µM (inactive)	–	–	14.3 µM (inactive)	26.8 µM (inactive)	–	16.2 µM (inactive)	–	27 µM (inactive)	38 µM (inactive)	2.81 µM (inactive)	17.5 µM (inactive)	15.8 µM (inactive)	–	24.9 µM (inactive)	19.7 µM (inactive)	14.2 µM (inactive)
O=C1C=CC(=O)C(CNc2ccc(C(=O)OC34CC5CC(CC(C5)C3)C4)cc2)=C1Br	11.1 µM (inactive)	13.5 µM (inactive)	5.33 µM (inactive)	2.24 µM (inactive)	1.99 µM (inactive)	7.29 µM (inactive)	13.9 µM (inactive)	3.33 µM (inactive)	15.9 µM (inactive)	4.98 µM (inactive)	15.6 µM (inactive)	7.35 µM (inactive)	1.66 µM (inactive)	0.435 µM (active)	12.7 µM (inactive)	5.51 µM (inactive)	2.34 µM (inactive)	–	6.15 µM (inactive)
CCOC(=O)N(c1ccccc1)c1cc(=O)n2ccccc2n1	> 100 µM (inactive)	> 100 µM (inactive)	> 100 µM (inactive)	> 100 µM (inactive)	> 100 µM (inactive)	> 100 µM (inactive)	> 100 µM (inactive)	> 100 µM (inactive)	> 100 µM (inactive)	38.9 µM (inactive)	> 100 µM (inactive)	> 100 µM (inactive)	> 100 µM (inactive)	–	> 100 µM (inactive)	> 100 µM (inactive)	–	> 100 µM (inactive)	> 100 µM (inactive)
COC(=O)C1=C(O)C(C(=O)OC)[C@]2(O)[C@H](C(=O)OC)[C@H]1C[C@@H](c1ccc([N+](=O)[O-])cc1)[C@H]2C(=O)OC (stereo partly specified)	18.1 µM (inactive)	25.1 µM (inactive)	15.9 µM (inactive)	8.09 µM (inactive)	18 µM (inactive)	25 µM (inactive)	74.1 µM (inactive)	38.2 µM (inactive)	–	14.7 µM (inactive)	19 µM (inactive)	13.2 µM (inactive)	14.3 µM (inactive)	2.46 µM (inactive)	14.7 µM (inactive)	17.6 µM (inactive)	–	–	42.3 µM (inactive)
O=C(O)[C@H]1[C@@H](C2CCCCC2)O[C@@H](C2CCCCC2)O[C@H]1C(F)(F)F	17.1 µM (inactive)	20.4 µM (inactive)	33.2 µM (inactive)	21.6 µM (inactive)	22.8 µM (inactive)	20.4 µM (inactive)	60.1 µM (inactive)	30.5 µM (inactive)	–	22.9 µM (inactive)	27.5 µM (inactive)	21.3 µM (inactive)	26.9 µM (inactive)	52.2 µM (inactive)	28.8 µM (inactive)	22 µM (inactive)	18.8 µM (inactive)	20.7 µM (inactive)	18.7 µM (inactive)
O=C(O)c1c(-c2ccccc2)c(=O)[nH]c2ccccc12	> 100 µM (inactive)	> 100 µM (inactive)	> 100 µM (inactive)	> 100 µM (inactive)	> 100 µM (inactive)	> 100 µM (inactive)	> 100 µM (inactive)	> 100 µM (inactive)	> 100 µM (inactive)	> 100 µM (inactive)	> 100 µM (inactive)	> 100 µM (inactive)	> 100 µM (inactive)	> 100 µM (inactive)	> 100 µM (inactive)	> 100 µM (inactive)	–	> 100 µM (inactive)	> 100 µM (inactive)
COC1=Nc2ccccc2S(=O)(=O)C=C1	14.4 µM (inactive)	2.78 µM (inactive)	6.75 µM (inactive)	–	0.342 µM (active)	1.79 µM (inactive)	2.75 µM (inactive)	3.66 µM (inactive)	2.61 µM (inactive)	2.69 µM (inactive)	24.7 µM (inactive)	6.35 µM (inactive)	0.195 µM (active)	1.21 µM (inactive)	1.74 µM (inactive)	4.35 µM (inactive)	4.81 µM (inactive)	–	2.31 µM (inactive)
CC(C)(C)c1ccccc1N1C(=O)c2ccc3c4c(ccc(c24)C1=O)N(c1ccccc1C(C)(C)C)C3=O	> 100 µM (inactive)	> 100 µM (inactive)	> 100 µM (inactive)	5.46 µM (inactive)	> 100 µM (inactive)	> 100 µM (inactive)	–	–	> 100 µM (inactive)	> 100 µM (inactive)	> 100 µM (inactive)	> 100 µM (inactive)	–	5.07 µM (inactive)	> 100 µM (inactive)	> 100 µM (inactive)	6.43 µM (inactive)	> 100 µM (inactive)	–
O=C(NCCC1CNc2ccccc21)OCc1ccccc1 (stereo unspecified)	–	> 100 µM (inactive)	> 100 µM (inactive)	71.4 µM (inactive)	87.7 µM (inactive)	> 100 µM (inactive)	–	–	> 100 µM (inactive)	> 100 µM (inactive)	> 100 µM (inactive)	> 100 µM (inactive)	–	> 100 µM (inactive)	> 100 µM (inactive)	> 100 µM (inactive)	> 100 µM (inactive)	> 100 µM (inactive)	–
